What was measured:
[1] = system: constitutive active colorectal cancer cell (CRC) Wnt pathway; assay: HCT116 TOPFlash cellular reporter assay (Super TopFlash luciferase), constitutive active Wnt pathway; type: cell-based; details: HCT116 TOP reporter cells, 36 hours incubation, luciferase expression
Procedure: In order to discover and characterize small molecules which inhibit the constitutive active colorectal cancer cell (CRC) Wnt pathway, a cellular reporter assay was employed. […] Stable transfectants were generated by cotransfection with pcDNA3 and selection of stable transfected cells with 1 mg/ml G418.

[2] = system: HCT116 FOP control reporter cell line; assay: HCT116 FOPFlash control reporter assay (FOP control vector, non-functional TCF elements); type: cell-based; details: HCT116 FOP control reporter cells, 36 hours incubation, luciferase expression
From the text: In a parallel approach, HCT116 cells were cotransfected with the FOP control vector and pcDNA3. The FOP vector is identical to the TOP construct, but it contains instead of functional TCF elements a randomized, non-functional sequence. For this transfection a stable transfected cell line was generated as well.

| Compound | IC50 [1] [µM] | IC50 ([2]; Homo sapiens, HCT-116, 36 h) [µM] | IC50 [2] [µM] | IC50 ([1]; Homo sapiens, HCT-116, 36 h) [µM] |
| --- | --- | --- | --- | --- |
| CC(C(=O)Nc1cc(C(=O)Nc2ccc(-c3cccc(F)c3)nc2)ccc1OC(F)(F)F)N1CCOCC1 (stereo not drawn) [Example 182, N-[6-(3-fluorophenyl)pyridin-3-yl]-3-{[2-(morpholin-4-yl)propanoyl]amino}-4-(trifluoromethoxy)benzamide] | 0.288 | 44 |  |  |
| CC(C(=O)Nc1cc(C(=O)Nc2ccc(-c3cccc(F)c3)nc2)ccc1OC(F)(F)F)N1CCOCC1 (stereo not drawn) [Example 183, N-[6-(3-fluorophenyl)pyridin-3-yl]-3-{[2-(morpholin-4-yl)propanoyl]amino}-4-(trifluoromethoxy)benzamide] | 0.029 |  | ≥ 50 |  |
| O=C(CN1C[C@@H]2C[C@H]1CO2)Nc1cc(NC(=O)c2ccc(-c3cc(F)cc(F)c3)nc2)ccc1OC(F)(F)F [Example 184, 6-(3,5-difluorophenyl)-N-[3-{[(1S,4S)-2-oxa-5-azabicyclo[2.2.1]hept-5-ylacetyl]amino}-4-(trifluoromethoxy)phenyl] nicotinamide] |  | 11 |  | 0.196 |
| CC(C(=O)Nc1cc(NC(=O)c2ccc(-c3cc(F)cc(F)c3)nc2)ccc1OC(F)(F)F)N1CC2CCC(C1)O2 (stereo not drawn) [Example 186, 6-(3,5-difluorophenyl)-N-[3-{[2-(8-oxa-3-azabicyclo[3.2.1]oct-3-yl)propanoyl]amino}-4-(trifluoromethoxy)phenyl] nicotinamide] | 0.0955 |  | 5.4 |  |
| CC(C(=O)Nc1cc(NC(=O)c2ccc(-c3cc(F)cc(F)c3)nc2)ccc1OC(F)(F)F)N1CCOCC1 (stereo not drawn) [Example 187, 6-(3,5-difluorophenyl)-N-[3-{[2-(morpholin-4-yl)propanoyl]amino}-4-(trifluoromethoxy)phenyl] nicotinamide] |  |  | 42 | 0.175 |
| CC(C(=O)Nc1cc(NC(=O)c2ccc(-c3cccc(F)c3)nc2)ccc1OC(F)(F)F)N1CC2CCC(C1)O2 (stereo not drawn) [Example 188, 6-(3-fluorophenyl)-N-[3-{[2-(8-oxa-3-azabicyclo[3.2.1]oct-3-yl)propanoyl]amino}-4-(trifluoromethoxy)phenyl] nicotinamide] | 0.12 |  | 5.5 |  |
| CC(C(=O)Nc1cc(NC(=O)c2ccc(-c3cccc(F)c3)nc2)ccc1OC(F)(F)F)N1CCOCC1 (stereo not drawn) [Example 189, 6-(3-fluorophenyl)-N-[3-{[2-(morpholin-4-yl)propanoyl]amino}-4-(trifluoromethoxy)phenyl] nicotinamide] |  |  | 10 | 0.138 |
| CC(C(=O)Nc1cc(NC(=O)c2ccc(-c3cccc(F)c3)nc2)ccc1OC(F)(F)F)N1CCOCC1 (stereo not drawn) [Example 190, 6-(3-fluorophenyl)-N-[3-{[2-(morpholin-4-yl)propanoyl]amino}-4-(trifluoromethoxy)phenyl] nicotinamide] | 0.087 |  | 9.5 |  |
| O=C(CN1CCOCC1)Nc1cc(C(=O)Nc2nnc(-c3ccccc3)o2)ccc1OC(F)(F)F [Example 191, 3-[(morpholin-4-ylacetyl)amino]-N-(5-phenyl-1,3,4-oxadiazol-2-yl)-4-(trifluoromethoxy)benzamide] |  | ≥ 50 |  | 4.1 |
| CC(C(=O)Nc1cc(C(=O)Nc2ccc(-c3cccc(F)c3)nc2)ccc1OC(F)(F)F)N1C[C@@H]2C[C@H]1CO2 (stereo partly drawn) [Example 192, N-[6-(3-fluorophenyl)pyridin-3-yl]-3-({2-[(1S,4S)-2-oxa-5-azabicyclo[2.2.1]hept-5-yl]propanoyl}amino)-4-(trifluoromethoxy)benzamide] |  | 12.4 |  | 0.135 |
| CC(C(=O)Nc1cc(C(=O)Nc2ccc(-c3cc(F)cc(F)c3)nc2)ccc1OC(F)(F)F)N1CC2CCC(C1)O2 (stereo not drawn) [Example 194, N-[6-(3,5-difluorophenyl)pyridin-3-yl]-3-{[2-(8-oxa-3-azabicyclo[3.2.1]oct-3-yl)propanoyl]amino}-4-(trifluoromethoxy)benzamide] | 0.0399 |  | 35 |  |
| CC(C(=O)Nc1cc(C(=O)Nc2ccc(-c3ccc(O)cc3)nc2)ccc1OC(F)(F)F)N1CCOCC1 (stereo not drawn) [Example 195, N-[6-(4-hydroxyphenyl)pyridin-3-yl]-3-{[2-(morpholin-4-yl)propanoyl]amino}-4-(trifluoromethoxy)benzamide] |  | ≥ 50 |  | 0.222 |
| CC(C(=O)Nc1cc(C(=O)Nc2ccc(-c3ccccc3F)nc2)ccc1OC(F)(F)F)N1CCN(C2CC2)CC1 (stereo not drawn) [Example 196, 3-{[2-(4-cyclopropylpiperazin-1-yl)propanoyl]amino}-N-[6-(2-fluorophenyl)pyridin-3-yl]-4-(trifluoromethoxy)benzamide] |  | ≥ 50 |  | 0.143 |
| CN1CCN(CC(=O)Nc2cc(C(=O)Nc3ccc(-c4ccccc4F)nc3)ccc2OC(F)(F)F)CC1 [Example 197, N-[6-(2-fluorophenyl)pyridin-3-yl]-3-{[(4-methylpiperazin-1-yl)acetyl]amino}-4-(trifluoromethoxy)benzamide] |  | 34 |  | 1.2 |
| CC(C(=O)Nc1cc(NC(=O)c2ccc(-c3cc(F)cc(F)c3)nc2)ccc1OC(F)(F)F)N1C[C@@H]2C[C@H]1CO2 (stereo partly drawn) [Example 198, 6-(3,5-difluorophenyl)-N-[3-({2-[(1S,4S)-2-oxa-5-azabicyclo[2.2.1]hept-5-yl]propanoyl}amino)-4-(trifluoromethoxy)phenyl] nicotinamide] |  | 15 |  | 0.144 |
| CC(C(=O)Nc1cc(NC(=O)c2ccc(-c3cccc(F)c3)nc2)ccc1OC(F)(F)F)N1C[C@@H]2C[C@H]1CO2 (stereo partly drawn) [Example 199, 6-(3-fluorophenyl)-N-[3-({2-[(1S,4S)-2-oxa-5-azabicyclo[2.2.1]hept-5-yl]propanoyl}amino)-4-(trifluoromethoxy)phenyl] nicotinamide] |  | 8.8 |  | 0.0717 |
| CC(C(=O)Nc1cc(NC(=O)c2ccc(-c3cccc(F)c3)nc2)ccc1OC(F)(F)F)N1CC2CCC(C1)O2 (stereo not drawn) [Example 200, 6-(3-fluorophenyl)-N-[3-{[2-(8-oxa-3-azabicyclo[3.2.1]oct-3-yl)propanoyl]amino}-4-(trifluoromethoxy)phenyl] nicotinamide] | 0.19 |  | 6.4 |  |
| CC(C(=O)Nc1cc(NC(=O)c2ccc(-c3cccc(F)c3)nc2)ccc1OC(F)(F)F)N1CCOCC1 (stereo not drawn) [Example 201, 6-(3-fluorophenyl)-N-[3-{[2-(morpholin-4-yl)propanoyl]amino}-4-(trifluoromethoxy)phenyl] nicotinamide] | 0.106 |  | 28.6 |  |
| CC(C(=O)Nc1cc(NC(=O)c2ccc(-c3cc(F)cc(F)c3)nc2)ccc1OC(F)(F)F)N1CC2CCC(C1)O2 (stereo not drawn) [Example 202, 6-(3,5-difluorophenyl)-N-[3-{[2-(8-oxa-3-azabicyclo[3.2.1]oct-3-yl)propanoyl]amino}-4-(trifluoromethoxy)phenyl] nicotinamide] | 0.2 |  | 5.8 |  |
| CC(C(=O)Nc1cc(NC(=O)c2ccc(-c3cc(F)cc(F)c3)nc2)ccc1OC(F)(F)F)N1CCOCC1 (stereo not drawn) [Example 203, 6-(3,5-difluorophenyl)-N-[3-{[2-(morpholin-4-yl)propanoyl]amino}-4-(trifluoromethoxy)phenyl] nicotinamide] | 0.124 |  | 15.2 |  |
| CC(C(=O)Nc1cc(NC(=O)c2ccc(-c3ccccc3F)nc2)ccc1OC(F)(F)F)N1CC2CCC(C1)O2 (stereo not drawn) [Example 204, 6-(2-fluorophenyl)-N-[3-{[2-(8-oxa-3-azabicyclo[3.2.1]oct-3-yl)propanoyl]amino}-4-(trifluoromethoxy)phenyl] nicotinamide] | 0.0765 |  | 32.8 |  |
| CC(C(=O)Nc1cc(NC(=O)c2ccc(-c3ccccc3F)nc2)ccc1OC(F)(F)F)N1CC2CCC(C1)O2 (stereo not drawn) [Example 205, 6-(2-fluorophenyl)-N-[3-{[2-(8-oxa-3-azabicyclo[3.2.1]oct-3-yl)propanoyl]amino}-4-(trifluoromethoxy)phenyl] nicotinamide] | 0.0202 |  | 18.2 |  |
| CC(C(=O)Nc1cc(NC(=O)c2ccc(-c3ccccc3F)nc2)ccc1OC(F)(F)F)N1CCOCC1 (stereo not drawn) [Example 206, 6-(2-fluorophenyl)-N-[3-{[2-(morpholin-4-yl)propanoyl]amino}-4-(trifluoromethoxy)phenyl] nicotinamide] | 0.0876 | 36.5 |  |  |
| CC(C(=O)Nc1cc(C(=O)Nc2ccc(-c3ccccc3F)nc2)ccc1C(F)(F)F)N1CCOCC1 (stereo not drawn) [Example 207, N-[6-(2-fluorophenyl)pyridin-3-yl]-3-{[2-(morpholin-4-yl)propanoyl]amino}-4-(trifluoromethyl)benzamide] | 0.153 |  | 8.55 |  |
| CN1CCN(CC(=O)Nc2cc(C(=O)Nc3ccc(-c4ccccc4F)nc3)ccc2C(F)(F)F)CC1 [Example 210, N-[6-(2-fluorophenyl)pyridin-3-yl]-3-{[(4-methylpiperazin-1-yl)acetyl]amino}-4-(trifluoromethyl)benzamide] |  | 29.5 |  | 0.152 |
| CC(C(=O)Nc1cc(C(=O)Nc2ccc(-c3ccccc3F)nc2)ccc1C(F)(F)F)N1CCOCC1 (stereo not drawn) [Example 211, N-[6-(2-fluorophenyl)pyridin-3-yl]-3-{[2-(morpholin-4-yl)propanoyl]amino}-4-(trifluoromethyl)benzamide] | 0.0402 |  | 24.6 |  |
| CC(C(=O)Nc1cc(NC(=O)c2ccc(-c3ccccc3F)nc2)ccc1OC(F)(F)F)N1CC2CCC(C1)O2 (stereo not drawn) [Example 212, 6-(2-fluorophenyl)-N-[3-{[2-(8-oxa-3-azabicyclo[3.2.1]oct-3-yl)propanoyl]amino}-4-(trifluoromethoxy)phenyl] nicotinamide] | 0.18 |  | ≥ 50 |  |

— patent US10130633B2, “Compounds” (BAYER PHARMA AKTIENGESELLSCHAFT, priority 2013, dated 2018)
